Laboratory results: ChEMBL document CHEMBL1201862, “PubChem BioAssay data set” (2004)
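How tested: cells in 96-well plates exposed to compound for 48 hours at five concentrations. GI50 marks 50% less growth.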 Calls of active or inactive are those of the source. Rule as the data show it: active = GI50 up to about 1.1 µM and inactive = higher.

Assays:
Assay in all cases: NCI-60 cell line screen, 48 h
MDA-N = system: MDA-N
SF-268 = system: SF-268
KM12 = system: KM12
M14 = system: M14
OVCAR-5 = system: OVCAR-5
NCI-H460 = system: NCI-H460
OVCAR-8 = system: OVCAR-8
T47D = system: T47D
SK-MEL-28 = system: SK-MEL-28
Malme-3M = system: Malme-3M
UACC-62 = system: UACC-62
IGROV-1 = system: IGROV-1
UACC-257 = system: UACC-257
BT-549 = system: BT-549
HCC 2998 = system: HCC 2998
A549 = system: A549
OVCAR-3 = system: OVCAR-3
HOP-62 = system: HOP-62
SK-MEL-5 = system: SK-MEL-5
HOP-92 = system: HOP-92

Measured: GI50

COC(=O)c1cc(CC2Cc3cc4c(cc3C2=O)CCC4)cc2c1CCC2 (stereo not drawn)
inactive: MDA-N 70.6 µM | SF-268 > 100 µM | KM12 > 100 µM | M14 52.1 µM | OVCAR-5 > 100 µM | NCI-H460 > 100 µM | OVCAR-8 > 100 µM | T47D > 100 µM | SK-MEL-28 > 100 µM | Malme-3M 37.8 µM | UACC-62 95.1 µM | IGROV-1 > 100 µM | UACC-257 77.6 µM | BT-549 60 µM | HCC 2998 > 100 µM | A549 > 100 µM | OVCAR-3 > 100 µM | HOP-62 53.1 µM

Clc1ccc(/C=N/c2ccc3c(c2)Cc2ccccc2-3)c(Cl)c1
inactive: SK-MEL-5 > 100 µM | MDA-N 53.2 µM | SF-268 > 100 µM | HOP-92 > 100 µM | KM12 > 100 µM | M14 > 100 µM | OVCAR-5 > 100 µM | NCI-H460 > 100 µM | OVCAR-8 > 100 µM | T47D > 100 µM | SK-MEL-28 > 100 µM | Malme-3M > 100 µM | UACC-62 > 100 µM | IGROV-1 > 100 µM | UACC-257 > 100 µM | BT-549 > 100 µM | A549 > 100 µM | OVCAR-3 > 100 µM | HOP-62 > 100 µM

CNc1ncnc2c1cnn2Cc1cn(COCC(O)CO)nn1 (stereo not drawn)
inactive: SK-MEL-5 > 100 µM | MDA-N > 100 µM | SF-268 4.97 µM | HOP-92 59.4 µM | KM12 > 100 µM | M14 > 100 µM | OVCAR-5 > 100 µM | OVCAR-8 > 100 µM | T47D > 100 µM | SK-MEL-28 > 100 µM | UACC-62 > 100 µM | IGROV-1 > 100 µM | UACC-257 > 100 µM | BT-549 > 100 µM | HCC 2998 > 100 µM | A549 > 100 µM | OVCAR-3 > 100 µM | HOP-62 > 100 µM

CC1CN(c2cc3c(cc2F)c(=O)c(C(=O)O)cn3-c2ccc(N3CCN(C)CC3)cn2)CC(C)N1 (stereo not drawn)
inactive: MDA-N > 100 µM | SF-268 > 100 µM | HOP-92 > 100 µM | KM12 87.5 µM | M14 > 100 µM | OVCAR-5 > 100 µM | NCI-H460 > 100 µM | OVCAR-8 44.5 µM | T47D > 100 µM | SK-MEL-28 > 100 µM | Malme-3M > 100 µM | UACC-62 > 100 µM | IGROV-1 > 100 µM | UACC-257 > 100 µM | BT-549 > 100 µM | A549 > 100 µM | OVCAR-3 > 100 µM | HOP-62 89.9 µM

CCOC(=O)c1c(CN2CCCC2)n(-c2ccccc2)c2cc(Br)c(OC)cc12
inactive: SK-MEL-5 12.3 µM | MDA-N 29.3 µM | SF-268 46.6 µM | HOP-92 10.6 µM | M14 16.3 µM | OVCAR-5 19.5 µM | NCI-H460 6.89 µM | OVCAR-8 29.2 µM | T47D 14.5 µM | SK-MEL-28 15.6 µM | Malme-3M 16.7 µM | UACC-62 10.9 µM | IGROV-1 16.5 µM | UACC-257 13.2 µM | BT-549 18.7 µM | A549 7.35 µM | OVCAR-3 24.9 µM | HOP-62 8.75 µM

CCSC1=CC2(O)N(CCc3ccc(OC)c(OC)c3)C(=O)CC2(C(=O)OC)CC1=O (stereo not drawn)
inactive: SK-MEL-5 41.2 µM | MDA-N 31.3 µM | HOP-92 14.6 µM | KM12 18.5 µM | M14 25.8 µM | OVCAR-5 > 100 µM | OVCAR-8 16.6 µM | T47D 21 µM | SK-MEL-28 37.2 µM | UACC-62 19.5 µM | IGROV-1 18.2 µM | UACC-257 17.9 µM | BT-549 18.4 µM | HCC 2998 18.5 µM | A549 > 100 µM | OVCAR-3 18.2 µM | HOP-62 18.2 µM

CC1(C)OC(=O)CC12CCN(Cc1ccccc1)CC2
inactive: SK-MEL-5 > 100 µM | MDA-N > 100 µM | SF-268 > 100 µM | HOP-92 > 100 µM | OVCAR-5 > 100 µM | OVCAR-8 > 100 µM | T47D > 100 µM | SK-MEL-28 > 100 µM | Malme-3M > 100 µM | UACC-62 > 100 µM | IGROV-1 > 100 µM | UACC-257 > 100 µM | BT-549 > 100 µM | A549 > 100 µM | OVCAR-3 > 100 µM | HOP-62 > 100 µM

O=C1CCCCC/C1=C\c1ccc([N+](=O)[O-])cc1
inactive: SK-MEL-5 20.1 µM | MDA-N 42.4 µM | SF-268 30.5 µM | KM12 19.8 µM | M14 32.1 µM | OVCAR-5 31.4 µM | NCI-H460 20.1 µM | OVCAR-8 38.8 µM | T47D 31.5 µM | SK-MEL-28 65 µM | Malme-3M 43.7 µM | UACC-62 27.8 µM | IGROV-1 16.3 µM | UACC-257 20.9 µM | BT-549 23 µM | HCC 2998 17.1 µM | A549 36.5 µM | OVCAR-3 21.9 µM | HOP-62 38.5 µM
